Assays:
ovalbumin-induced asthma [1] = assay: Ovalbumin-induced asthma, treatment of chronic asthma model (BAL cells, lung histology); format: in vivo, BALB/c mice; conditions: Mean ± SE
Procedure: • Twelve-week-old Balb/c mice were administered 10 μg (100 μl) ovalbumin (OVA) dissolved with 3 mg Al(OH)3 in 0.9% saline intraperitoneally (i.p.) on days 0, 7 and 14, and 10 μg (50 μl) OVA intranasally (i.n.) on days 20, 23, 25, 27, 29, 31, 34, 36, 37, 41, 43 and 45. For intranasal administration, mice were anesthetized with inhaled N-flurane and instilled with OVA i.n. with a micropipette. • Three-week-old BALB/c mice were sensitized (×3) with intra-peritoneal (i/p) injection (100 μl OVA solution, containing 0.3 mg OVA and 6.7 mg Al(OH)3, in 1 ml PBS) on days 0, 7 and 14. On days 14, 15, 17, 21 and 23 the mice were further sensitized with intranasal sprinklings (50 μl, each) of OVA in PBS solution containing 2 mg/ml OVA, as following: mice were anesthetized with inhaled N-flurane and instilled with OVA intra-nasally using a micropipette. Twenty-four hours after the last administration of OVA, the mice were sacrificed. Methacholine Challenge and Collection of Histologic Sections and Biochemical Samples
Either Zn-DFO, Ga-DFO, Zn-DFO and Ga-DFO 1:1 combination (herein metal complexes) or saline were administered as follows: on days −5, −1, 7 and 14, 1 mg/kg body weight metal complexes or saline were administered intraperitoneally (i.p.). On days 0, 6, 8, 13 and 15, 0.3 mg/kg body weight metal complexes or saline were administered i.p. On days 20, 23, 25, 27, 29, 31, 34, 36, 37, 41, 43 and 45, 0.3 mg/kg body weight metal complexes or saline were administered intranasally (i.n.). Twenty-four hours after the last sensitization, mice were anesthetized with urethane and the lungs were lavaged 4 times with 0.5 ml sterile PBS. Animals in the “control” group (non-asthmatic—saline treated, but not sensitized) (n=6) received saline injections and instillations, using the same regime as the asthmatic and treated animals. Animals of the “asthmatic” group (sensitized and saline-treated, rather than complex-treated) (n=6) received saline instead of the respective complex, under the same regime.
For the treatment of chronic asthma model, a similar experimental protocol was followed, with the following modifications: 1 mg/kg body weight metal complexes or saline were administered i.p. on day 0 (instead of days −5 and −1) and a further 0.3 mg/kg complexes or saline were administered on day 1. In this model, the effects of the complexes were investigated further by histological examination of lung sections stained with either haematoxylin-eosine or PAS/AB (periodic acid-Schiff/alcan blue).
(§1) To estimate the anti-asthmatic effect of the complexes the following parameters were measured: the concentration of ferritin in the lungs, the presence of inflammatory cells infiltration into the lungs, and the amounts of macrophages, eosinophils, lymphocytes and neutrophils in bronchoalveolar lavages (BALs).

[2] = complex of desferrioxamine with the named metal ion; cited from earlier work
ovalbumin-induced asthma [3] = assay: Ovalbumin-induced asthma, prophylactic treatment model (lung ferritin); format: in vivo, BALB/c mice; conditions: asthmatic mice, 1 and 0.3 mg/kg i.p., then 0.3 mg/kg i.n.
Procedure: Ferritin concentration was quantified using an indirect ‘sandwich’ ELISA assay in accordance with a procedure developed previously in our laboratory. Briefly, ELISA 96-well micro plates were pre-coated with goat anti-human L-ferritin antibody. Rabbit anti-human H-ferritin was used as the secondary antibody. Plates were treated with goat anti-rabbit IgG conjugated with β-galactosidase. Chlorophenol Red-β-D-Galactopyranoside was then added and the plates analyzed using a microplate reader with a test (570 nm) and reference (630 nm) filters.
• Twelve-week-old Balb/c mice were administered 10 μg (100 μl) ovalbumin (OVA) dissolved with 3 mg Al(OH)3 in 0.9% saline intraperitoneally (i.p.) on days 0, 7 and 14, and 10 μg (50 μl) OVA intranasally (i.n.) on days 20, 23, 25, 27, 29, 31, 34, 36, 37, 41, 43 and 45. […]
as §1

[4] = system: high energy diet-induced Type II diabetes; assay: Sand rat high energy diet Type II diabetes model, glucose tolerance test and cataract formation (Example 6); format: in vivo, sand rat (Psammomis obesus)
Source text: Sand rats (Psammomis Obesus) were used as a model for Type 2 diabetes. The sand rats transferred onto high energy diet develop a severe form of Type 2 diabetes, including high blood glucose level, increase in body weight, and cataract development (eye lens opacification).
The sand rats were divided into groups. The animals from the Group I received the standard diet, serving as a control, whereas animals from the other indicated groups received high energy diet, leading to diabetes development. The high-energy diet ed mice were either untreated, or treated with intra-peritoneal injections of 2.5 mg/kg body weight Ga-DFO, Zn-DFO, DFO alone, Zn, Ga or lipoic acid (LA), either twice or three times per week, as indicated, for the duration of the experiment. The blood glucose and body weight of the animals were monitored throughout the experiment.
Forty two sand rats were divided into seven groups, six animals in each. The animals from Group I received the standard diet and used as a control. The animals from the Groups II, III, IV, V, VI and VII received high energy diet, leading to diabetes development, while Groups III, IV and VII were treated with Zn-DFO, Ga-DFO and DFO alone, respectively. The Groups V and VI received Zn and Ga, in their chloride salt form, alone respectively. Administration of the different treatments was as described, and the experiment lasted for 53 days. Glucose tolerance test was performed at the end of experiment. The cataract formation was tested as well.

[5] = system: high energy diet-induced Type II diabetes; assay: Sand rat high energy diet Type II diabetes model, body weight, blood glucose, glucose tolerance, cataract (Example 7); format: in vivo, sand rat (Psammomis obesus)

CC(=O)N(O)CCCCCNC(=O)CCC(=O)N([O-])CCCCCNC(=O)CCC(=O)N([O-])CCCCCN.[Zn+2] [Zn-DFO, Zinc-desferrioxamine]
Eosinophils in BAL fluid (ovalbumin-induced asthma [1]): 0.3 ± 0.05^# 10^4 cells/ml | Lymphocytes in BAL fluid (ovalbumin-induced asthma [1]): 0.2 ± 0.05^# 10^4 cells/ml | Macrophages in BAL fluid (ovalbumin-induced asthma [1]): 3.0 ± 0.2^# 10^4 cells/ml | Neutrophils in BAL fluid (ovalbumin-induced asthma [1]): 0.2 ± 0.05^# 10^4 cells/ml | Total WBC in BAL fluid (ovalbumin-induced asthma [1]): 4.0 ± 0.3^# 10^4 cells/ml | relative stability constants for the complexes of desferrioxamine [2]: 10^11 | lung ferritin level (ovalbumin-induced asthma [3]): 0.6 ± 0.2 µg/mg | three hours response to an orally-administered glucose dose, value above the zero (standard diet Group I) ([4]; 200 mg glucose per 100 g body weight, end of 53 day experiment, high energy diet): 20 mg/dL | Cataract formation ([4]; high energy diet (HE) sand rats, 53 days): 22% | blood glucose value ([5]; day 28, high energy diet, 2.5 mg/kg i.p. three times a week): 200 mg/dL | body weight gain ([5]; high energy diet, 2.5 mg/kg i.p. three times a week, 63 days): gained weight moderately | blood glucose value ([5]; toward the end of experiment, high energy diet, 2.5 mg/kg i.p. three times a week): 110 mg/dL | animals that did not develop cataract ([5]; treated group (Group III)): four | animals with grade 1-2 cataract in both eyes ([5]; treated group (Group III)): Two | animals with severe (grade 3) cataract ([5]; treated group (Group III)): one | glucose tolerance test, integration of total glucose levels ([5]; versus Group I (standard diet)): insignificantly higher value than Group I

From patent US9770430B2, “Desferrioxamine-metal complexes for the treatment of immune-related disorders” (priority 2009, dated 2017)
